pIC50: −log10 of the molar value. Where “and” joins values, the source holds several entries; their conditions need not be identical. Equal entries are not always repeated. Where two headings read alike, the source gives them in different places.
Assays:
[1] = target: Human mTOR (FLAG-TOR) (Homo sapiens, UniProt P42345); test: mTOR kinase assay (DELFIA format, purified enzyme); format: biochemical; conditions: read-out: IC50 mTOR
[2] = target: PI3K-α (Homo sapiens, UniProt P42336); test: PI3K-alpha fluorescence polarization assay; conditions: read-out: IC50 PI3Kα
Chain of PI3K-α (P42336 whole entry, species assumed): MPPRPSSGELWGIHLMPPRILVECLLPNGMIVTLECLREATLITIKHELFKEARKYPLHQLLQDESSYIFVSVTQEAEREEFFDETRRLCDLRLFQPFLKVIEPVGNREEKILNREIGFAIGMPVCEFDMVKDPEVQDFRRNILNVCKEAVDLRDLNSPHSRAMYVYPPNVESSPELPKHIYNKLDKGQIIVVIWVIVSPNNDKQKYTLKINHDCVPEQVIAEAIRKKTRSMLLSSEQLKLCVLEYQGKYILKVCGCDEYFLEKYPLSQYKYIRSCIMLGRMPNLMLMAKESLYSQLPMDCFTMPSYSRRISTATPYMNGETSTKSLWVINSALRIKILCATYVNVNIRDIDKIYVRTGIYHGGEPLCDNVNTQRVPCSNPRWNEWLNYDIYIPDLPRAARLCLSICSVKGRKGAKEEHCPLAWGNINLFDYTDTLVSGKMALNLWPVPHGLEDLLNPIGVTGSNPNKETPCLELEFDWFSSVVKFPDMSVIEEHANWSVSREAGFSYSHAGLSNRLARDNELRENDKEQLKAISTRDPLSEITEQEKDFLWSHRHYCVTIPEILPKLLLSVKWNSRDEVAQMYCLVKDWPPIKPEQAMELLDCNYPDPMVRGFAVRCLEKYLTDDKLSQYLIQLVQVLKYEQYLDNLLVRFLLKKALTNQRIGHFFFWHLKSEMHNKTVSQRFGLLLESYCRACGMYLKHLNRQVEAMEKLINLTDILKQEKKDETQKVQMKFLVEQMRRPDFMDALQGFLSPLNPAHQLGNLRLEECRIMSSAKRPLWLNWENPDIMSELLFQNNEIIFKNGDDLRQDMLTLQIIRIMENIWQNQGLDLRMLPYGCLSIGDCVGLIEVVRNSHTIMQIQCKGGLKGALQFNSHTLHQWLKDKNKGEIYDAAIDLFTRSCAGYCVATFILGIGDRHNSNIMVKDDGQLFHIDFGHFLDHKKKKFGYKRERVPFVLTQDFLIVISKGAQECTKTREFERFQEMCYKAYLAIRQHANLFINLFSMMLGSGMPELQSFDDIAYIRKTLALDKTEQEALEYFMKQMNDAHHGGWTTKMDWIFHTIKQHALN
Chain of PI3K-α (P27986 whole entry partner, species assumed): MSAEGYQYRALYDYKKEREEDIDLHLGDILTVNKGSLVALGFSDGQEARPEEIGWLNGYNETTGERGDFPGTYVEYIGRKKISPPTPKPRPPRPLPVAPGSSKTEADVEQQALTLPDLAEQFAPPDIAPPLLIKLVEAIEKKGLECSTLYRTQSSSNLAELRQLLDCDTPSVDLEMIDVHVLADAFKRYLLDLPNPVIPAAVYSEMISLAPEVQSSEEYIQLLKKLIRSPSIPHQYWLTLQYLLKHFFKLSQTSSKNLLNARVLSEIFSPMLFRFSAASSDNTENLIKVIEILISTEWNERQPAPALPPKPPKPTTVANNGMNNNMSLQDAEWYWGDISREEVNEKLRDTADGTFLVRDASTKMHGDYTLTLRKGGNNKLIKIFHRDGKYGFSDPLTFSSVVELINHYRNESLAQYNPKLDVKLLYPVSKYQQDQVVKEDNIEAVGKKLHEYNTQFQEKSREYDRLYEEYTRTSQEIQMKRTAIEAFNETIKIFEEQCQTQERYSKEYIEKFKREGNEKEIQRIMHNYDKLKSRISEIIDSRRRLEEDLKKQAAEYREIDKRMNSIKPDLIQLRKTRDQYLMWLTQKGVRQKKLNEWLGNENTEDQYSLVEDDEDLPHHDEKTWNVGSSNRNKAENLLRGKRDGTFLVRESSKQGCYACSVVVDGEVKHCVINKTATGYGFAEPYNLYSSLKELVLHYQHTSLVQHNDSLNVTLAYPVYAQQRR

[3] = target: PI3K-γ (Homo sapiens, UniProt P48736); test: PI3K-gamma fluorescence polarization assay; conditions: read-out: IC50 PI3Kγ
Chain of PI3K-γ (P48736 whole entry, species assumed): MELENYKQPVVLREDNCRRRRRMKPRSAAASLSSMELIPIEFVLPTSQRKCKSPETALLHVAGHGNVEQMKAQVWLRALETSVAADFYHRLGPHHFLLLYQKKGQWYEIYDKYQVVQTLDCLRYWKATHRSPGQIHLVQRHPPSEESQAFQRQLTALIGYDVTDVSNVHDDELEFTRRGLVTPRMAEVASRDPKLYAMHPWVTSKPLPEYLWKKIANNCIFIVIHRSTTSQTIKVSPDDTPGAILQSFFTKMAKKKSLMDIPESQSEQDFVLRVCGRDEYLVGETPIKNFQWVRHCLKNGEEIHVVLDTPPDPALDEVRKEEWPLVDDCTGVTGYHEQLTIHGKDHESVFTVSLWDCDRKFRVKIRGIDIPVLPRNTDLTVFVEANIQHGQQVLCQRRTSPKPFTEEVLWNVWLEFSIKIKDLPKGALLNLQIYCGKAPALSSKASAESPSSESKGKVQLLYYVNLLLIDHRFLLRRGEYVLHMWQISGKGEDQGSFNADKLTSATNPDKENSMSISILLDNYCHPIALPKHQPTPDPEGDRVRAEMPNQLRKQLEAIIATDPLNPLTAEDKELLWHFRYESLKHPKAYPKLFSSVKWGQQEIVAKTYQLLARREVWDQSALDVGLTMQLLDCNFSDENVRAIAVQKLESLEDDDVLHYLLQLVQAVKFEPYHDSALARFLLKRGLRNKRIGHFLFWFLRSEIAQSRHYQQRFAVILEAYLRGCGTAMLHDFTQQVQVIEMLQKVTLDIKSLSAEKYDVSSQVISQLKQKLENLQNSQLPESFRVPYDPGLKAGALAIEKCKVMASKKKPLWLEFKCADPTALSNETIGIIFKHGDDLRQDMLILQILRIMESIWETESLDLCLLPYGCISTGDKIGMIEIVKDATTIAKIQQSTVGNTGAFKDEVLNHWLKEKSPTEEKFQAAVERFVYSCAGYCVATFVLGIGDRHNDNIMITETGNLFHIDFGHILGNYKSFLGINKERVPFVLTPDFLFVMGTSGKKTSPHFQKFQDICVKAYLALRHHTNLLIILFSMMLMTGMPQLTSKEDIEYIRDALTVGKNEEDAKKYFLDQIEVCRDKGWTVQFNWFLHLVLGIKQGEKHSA

Chain of Human mTOR (FLAG-TOR) (P42345 1360-2549 limits assumed): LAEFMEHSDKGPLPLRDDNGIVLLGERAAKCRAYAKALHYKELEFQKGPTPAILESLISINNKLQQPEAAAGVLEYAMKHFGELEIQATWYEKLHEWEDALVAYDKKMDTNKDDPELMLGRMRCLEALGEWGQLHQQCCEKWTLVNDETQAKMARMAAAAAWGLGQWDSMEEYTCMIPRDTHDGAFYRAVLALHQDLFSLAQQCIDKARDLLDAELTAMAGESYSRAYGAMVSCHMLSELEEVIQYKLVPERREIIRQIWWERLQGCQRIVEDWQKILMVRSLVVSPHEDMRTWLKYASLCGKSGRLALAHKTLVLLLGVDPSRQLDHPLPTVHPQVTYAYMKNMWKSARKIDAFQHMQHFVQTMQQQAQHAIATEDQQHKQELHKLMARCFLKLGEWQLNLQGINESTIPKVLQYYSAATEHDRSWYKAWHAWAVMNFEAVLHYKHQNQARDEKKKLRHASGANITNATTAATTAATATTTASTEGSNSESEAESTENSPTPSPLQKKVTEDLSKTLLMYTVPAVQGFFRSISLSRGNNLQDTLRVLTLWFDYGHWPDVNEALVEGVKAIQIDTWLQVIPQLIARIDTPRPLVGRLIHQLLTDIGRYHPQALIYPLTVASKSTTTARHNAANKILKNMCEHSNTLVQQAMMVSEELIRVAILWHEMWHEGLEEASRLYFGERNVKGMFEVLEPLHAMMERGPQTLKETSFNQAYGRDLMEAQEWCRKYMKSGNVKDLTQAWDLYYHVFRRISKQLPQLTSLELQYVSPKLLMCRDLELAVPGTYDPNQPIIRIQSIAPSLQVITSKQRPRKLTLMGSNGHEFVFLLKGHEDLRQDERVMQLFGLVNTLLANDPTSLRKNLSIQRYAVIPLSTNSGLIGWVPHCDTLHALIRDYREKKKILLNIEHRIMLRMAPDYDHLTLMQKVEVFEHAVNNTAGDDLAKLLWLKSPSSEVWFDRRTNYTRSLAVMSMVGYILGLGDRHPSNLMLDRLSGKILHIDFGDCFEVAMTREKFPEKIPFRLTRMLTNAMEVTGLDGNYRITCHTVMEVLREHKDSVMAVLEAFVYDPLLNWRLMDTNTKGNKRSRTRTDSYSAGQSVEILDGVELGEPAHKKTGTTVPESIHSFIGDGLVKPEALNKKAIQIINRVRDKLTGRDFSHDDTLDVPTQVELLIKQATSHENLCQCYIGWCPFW

pIC50 [1]	pIC50 [2]	pIC50 [3]	pIC50 ([2]; listed as 531)	pIC50 ([3]; listed as 531)	SMILES
8.15	7.05	6.56			COC(=O)c1ccc(NC(=O)Nc2ccc(-c3nc(N4CCOCC4)nc(N4CCN(C(=O)N(C)C)CC4)n3)cc2)cc1 [Example 641, methyl 4-{[(4-{4-[4-(dimethylcarbamoyl)piperazin-1-yl]-6-morpholin-4-yl-1,3,5-triazin-2-yl}phenyl)carbamoyl]amino}benzoate]
7.00	6.33	5.88			Cc1ccc(-c2nc(-c3ccc(NC(=O)Nc4cccc(C(=O)N(C)CCN(C)C)c4)cc3)nc(N3CCOCC3)n2)cc1 [Example 580, N-[2-(dimethylamino)ethyl]-N-methyl-3-[({4-[4-(4-methylphenyl)-6-morpholin-4-yl-1,3,5-triazin-2-yl]phenyl}carbamoyl)amino]benzamide]
6.53	6.46	6.13			CN(C)CCOc1ccc(NC(=O)Nc2ccc(-c3nc(NS(=O)(=O)c4ccccc4)nc(N4CCOCC4)n3)cc2)cc1 [Example 783, N-(4-{4-[({4-[2-(dimethylamino)ethoxy]phenyl}carbamoyl)amino]phenyl}-6-morpholin-4-yl-1,3,5-triazin-2-yl)benzenesulfonamide]
8.40	7.44	7.07			CCS(=O)(=O)N1CCN(c2nc(-c3ccc(NC(=O)Nc4ccc(C(=O)O)cc4)cc3)nc(N3CCOCC3)n2)CC1 [Example 652, 4-{[(4-{4-[4-(ethylsulfonyl)piperazin-1-yl]-6-morpholin-4-yl-1,3,5-triazin-2-yl}phenyl)carbamoyl]amino}benzoic acid]

Continued, compound first:

SMILES	pIC50 [1]	pIC50 [2]	pIC50 [3]	pIC50 ([2]; listed as 531)	pIC50 ([3]; listed as 531)
CN1CC2CN(c3nc(-c4ccc(NC(=O)Nc5ccncc5)cc4)nc(N4CCOCC4)n3)CC(C1)O2 [Example 291, 1-{4-[4-(7-methyl-9-oxa-3,7-diazabicyclo[3.3.1]non-3-yl)-6-morpholin-4-yl-1,3,5-triazin-2-yl]phenyl}-3-pyridin-4-ylurea]	6.72	6.43	6.15		
Cc1ccc(-c2nc(-c3ccc(NC(=O)Nc4ccc(N5CCC(N(C)C)CC5)cc4)cc3)nc(N3CCOCC3)n2)cc1 [Example 339, 1-{4-[4-(dimethylamino)piperidin-1-yl]phenyl}-3-{4-[4-(4-methylphenyl)-6-morpholin-4-yl-1,3,5-triazin-2-yl]phenyl}urea]	7.05 and 7.10	7.15	6.31	7.15	6.31
CC(C)(C)OC(=O)N1CC2CN(c3nc(-c4ccc(NC(=O)Nc5ccncc5)cc4)nc(N4CCOCC4)n3)CC(C1)O2 [Example 281, tert-butyl-7-(4-morpholin-4-yl-6-{4-[(pyridin-4-ylcarbamoyl)amino]phenyl}-1,3,5-triazin-2-yl)-9-oxa-3,7-diazabicyclo[3.3.1]nonane-3-carboxylate]	5.55	5.66	5.30		
C[C@H]1COCCN1c1nc(-c2ccc(NC(=O)Nc3ccc(C(=O)N4CC[C@@H](N(C)C)C4)cc3)cc2)nc(N2C3CCC2COC3)n1 [Example 833, 1-(4-{[(3R)-3-(dimethylamino)pyrrolidin-1-yl]carbonyl}phenyl)-3-(4-{4-[(3S)-3-methylmorpholin-4-yl]-6-(3-oxa-8-azabicyclo[3.2.1]oct-8-yl)-1,3,5-triazin-2-yl}phenyl)urea]	6.73	8.25	7.09		
O=C(Nc1ccc(-c2nc(N3CCOCC3)nc(N3CCOCC3)n2)cc1)Nc1ccnnc1 [Example 481, 1-[4-(4,6-dimorpholin-4-yl-1,3,5-triazin-2-yl)phenyl]-3-pyridazin-4-ylurea]	8.64	7.96	7.19		
CCNC(=O)Nc1ccc(-c2nc(N3CCOCC3)nc(N3CCOCC3)n2)cc1 [Example 12, 1-[4-(4,6-dimorpholin-4-yl-1,3,5-triazin-2-yl)phenyl]-3-ethylurea]	7.96	6.61	6.09		
